Among the data in paper PMC1924862, “X-ray structures of Na-GST-1 and Na-GST-2 two glutathione s-transferase from the human hookworm Necator americanus” (BMC Structural Biology, 2007) are IC50 values, retold here.

One assay deals with T1, Na-GST-2 (Necator americanus, UniProt D3U1A6).
T1 construct: homodimer; Nu class; glutathione carried over from fermentation
T1 sequence (D3U1A6 1-206): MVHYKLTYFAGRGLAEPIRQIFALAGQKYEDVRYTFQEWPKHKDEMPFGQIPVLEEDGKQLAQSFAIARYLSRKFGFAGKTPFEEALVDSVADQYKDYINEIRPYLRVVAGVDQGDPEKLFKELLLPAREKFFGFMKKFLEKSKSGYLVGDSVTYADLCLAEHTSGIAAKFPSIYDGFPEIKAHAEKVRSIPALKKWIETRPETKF
Put plainly: CDNB-glutathione conjugation, absorbance at […] nm. The assay is classed as biochemical.

In the next assay the target is T2, Na-GST-1 (Necator americanus, UniProt D3U1A5).
T2 construct: 206 residues ordered; homodimer; Nu class
T2 sequence (D3U1A5 1-206): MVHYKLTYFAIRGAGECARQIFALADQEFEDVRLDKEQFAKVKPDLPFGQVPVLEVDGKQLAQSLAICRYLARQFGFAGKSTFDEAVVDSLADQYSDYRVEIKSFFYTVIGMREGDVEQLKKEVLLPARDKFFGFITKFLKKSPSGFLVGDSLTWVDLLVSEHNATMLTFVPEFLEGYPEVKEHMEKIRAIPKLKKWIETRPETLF
Put plainly: CDNB-glutathione conjugation, absorbance at […] nm. The assay is classed as biochemical.

Like-named read-outs stand apart in the source and are kept apart here.

As to `CCCSc1ccc2nc(NC(=O)OC)[nH]c2c1` [albendazole], the values for the IC50 on Na-GST-2 and on Na-GST-1 (read-out: Na-GST-1) were 68 µM and 87 µM, respectively.

Regarding `O=C(C1CCCCC1)N1CC(=O)N2CCc3ccccc3C2C1` (stereo not drawn) [praziquantel], the IC50 against Na-GST-2 was 3300 µM; on Na-GST-1 (read-out: Na-GST-1) it was over 20000 µM.

For the compound `[Cl][Sn]([c]1ccccc1)([c]1ccccc1)[c]1ccccc1` [chlorotriphenyltin], the results for the IC50 on Na-GST-2 and at Na-GST-1 were 0.7 µM and 22 µM, respectively.
